Assay [1] has as its system P. aeruginosa clinical isolates. The format is cell-based, Pseudomonas aeruginosa. The following applies: four independent clinical isolates. The source says:
P. aeruginosa ATCC 27853 (American Type Culture Collection, Rockville, Md.) is the strain used for testing antimicrobial activity against P. aeruginosa unless otherwise noted. It is a standardized strain for antibiotic-susceptibility testing of pseudomonads (see, e.g., Code of Federal Regulations, Title 21, Part 460, 1987). […] Agents effective against P. aeruginosa are needed in the art because multiple antibiotic resistance is quite common among clinical strains, and therefore resultant infections are often difficult to treat.
^1 3-5 × 10^7 CFU/ml of the designated strains were exposed
to 500 μg/ml of HPLCpurified peptides in 1/100 strength BHSS (10 mm
sodium phosphate, pH 7.0, 10 mM NaCl.

For the next assay, the system named is P. aeruginosa ATCC 27853. The following applies: Table 7A; RP-HPLC-purified peptides 500 μg/ml.
Assay [2] concerns S. aureus strain 8325-4. The following applies: strain 8325-4, 500.
The subject of a further assay is S. aureus. The format is cell-based, Staphylococcus aureus. The following applies: Table 11; 50 μg/ml; 1% TSB, 2 h at 37° C.
Assay [3] relates to S. aureus strain 8325-4. The following applies: HBSS, optimal conditions.
Another assay concerns P. aeruginosa. The assay can be described thus: Bactericidal capacity of cathepsin G in 1% TSB, P. aeruginosa. The following applies: Table 11, 50 μg/ml, 2 h at 37° C. Format: cell-based, Pseudomonas aeruginosa.

Where a SMILES comes first, the peptide text is derived from it.

Consider `CC[C@H](C)[C@H](NC(=O)[C@H](Cc1c[nH]c2ccccc12)NC(=O)[C@@H]1CCCN1C(=O)[C@H](CC(C)C)NC(=O)[C@H](Cc1ccccc1)NC(=O)[C@H](CO)NC(=O)[C@H](CO)NC(=O)[C@@H](NC(=O)[C@H](Cc1ccccc1)NC(=O)[C@H](CCCNC(=N)N)NC(=O)[C@@H](NC(=O)[C@H](Cc1ccccc1)NC(=O)[C@@H](NC(=O)[C@H](CCC(=O)O)NC(=O)[C@@H]1CCCN1C(=O)[C@@H]1CCCN1C(=O)[C@@H](NC(=O)CNC(=O)[C@H](CO)NC(=O)[C@H](CO)NC(=O)[C@H](CCCCN)NC(=O)CN)C(C)C)C(C)C)[C@@H](C)O)C(C)C)C(=O)N[C@@H](CCCNC(=N)N)C(=O)N[C@H](C(=O)N[C@H](C(=O)N[C@@H](CCSC)C(=O)N[C@@H](CCCNC(=N)N)C(=O)O)[C@@H](C)O)[C@@H](C)O` [CG 198-223] (H-GKSSGVPPEVFTRFVSSFLPWIRTTMR-OH; N-terminus and C-terminus assumed), for which, in assay [1], the “killing of P. aeruginosa clinical strains (in words)” value is on record as “some variability in effectiveness”. The “Log Kill (500 μg/ml) P. aeruginosa ATCC 278533” value in the assay with P. aeruginosa ATCC 27853 turned out to be 5.73 log. In addition, in the assay with S. aureus strain 8325-4 [2], the “Log Kill (500 μg/ml) S. aureus strain 8325-4” value is listed as 0.26 log.

As for “enzymatically active Cat G: cathepsin G purified from extracts of human PMN granules”, in the assay with S. aureus, the “Log Reduction in CFU/ml S. aureus” value is 2.82 log. For the same compound, in the assay with S. aureus strain 8325-4 [3], the “ED50 for S. aureus” value came to 4 µM. Moreover, the “Log Reduction in CFU/ml P. aeruginosa” value with P. aeruginosa is 2.41 log.
